# Source: PubChem BioAssay (NCI)
# Several values for one entry are separate records, joined by “and”; a condition that tells them apart may be missing. Equal entries are not always repeated.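 Five concentrations, 48 hours, 96-well plates. The concentration for 50% growth inhibition is given as GI50. TGI marks complete inhibition of growth.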
# Legend:
# Test in all cases: growth of human tumour cells (NCI), 48 h
# [1] = tested on: HCT-15 colon
# [2] = tested on: LOX IMVI melanoma
# [3] = tested on: U251 CNS
# [4] = tested on: HL-60(TB) leukemia
# [5] = tested on: SF-295 CNS
# [6] = tested on: SNB-19 CNS
# [7] = tested on: MCF7 breast
# [8] = tested on: UACC-257 melanoma
SMILES,TGI [1],TGI [2],TGI [3],TGI [4],TGI [5],TGI [6],TGI [7],TGI [8],GI50 [1],GI50 [2],GI50 [3],GI50 [4],GI50 [5],GI50 [6],GI50 [7],GI50 [8]
CC1NCCC(CC(=O)O)C1CC(=O)O (stereo not drawn),> 100 µM,> 100 µM,> 100 µM,> 100 µM,> 100 µM,> 100 µM,> 100 µM,> 100 µM,–,–,–,–,–,–,–,–
OCC1OC(N2CCN(C3OC(CO)C(O)C(O)C3O)CC2)C(O)C(O)C1O (stereo not drawn),> 100 µM,> 100 µM,> 100 µM,–,> 100 µM,> 100 µM,> 100 µM,> 100 µM,–,–,–,–,–,–,–,–
CC(=O)Nc1ccc2c(c1)[nH]c(=O)c1cc(NC(C)=O)ccc12,> 100 µM,> 100 µM,> 100 µM,> 100 µM,> 100 µM,> 100 µM,> 100 µM,> 100 µM,> 100 µM,> 100 µM,52 µM,26.6 µM,> 100 µM,> 100 µM,> 100 µM,> 100 µM
CCN1C(=O)N(CC)C2C1NN=c1s/c(=C\c3ccc(Br)cc3)c(=O)n12 (stereo not drawn),> 100 µM,> 100 µM,> 54.2 µM,1.43 µM,> 100 µM,> 100 µM,> 100 µM,> 100 µM,0.0598 µM,0.185 µM,0.18 µM,0.107 µM,0.0738 µM,0.346 µM,0.0443 µM,0.849 µM
COc1ccc2c(c1)C(=O)CC(C(N)=O)C2 (stereo not drawn),> 100 µM,> 100 µM,> 100 µM,> 100 µM,> 100 µM,> 100 µM,> 100 µM,> 100 µM,–,–,–,–,–,–,–,–
Nc1cc2c3ccccc3ccc2c2ccccc12,> 100 µM,> 100 µM,> 100 µM,> 100 µM,> 100 µM,> 100 µM,> 100 µM,> 100 µM,3.92 µM,9.13 µM,21.4 µM,> 68.6 µM,> 100 µM,> 100 µM,20.2 µM,> 100 µM
O=C(Nc1ccc(-c2cn3ccccc3n2)cc1)c1cc(Br)ccc1O,> 100 µM,> 100 µM,> 100 µM,> 100 µM,> 100 µM,> 100 µM,> 100 µM,> 100 µM,–,–,–,–,–,–,–,–
Cn1cc(-c2nc(-c3c[nH]c4ccccc34)cs2)c2cccnc21,> 100 µM,> 100 µM,> 53.9 µM,> 72.4 µM,19.8 µM,> 100 µM,> 100 µM,> 100 µM,0.221 µM,0.628 µM,0.432 µM,0.317 µM,0.268 µM,0.53 µM,0.325 µM,14.2 µM
Cc1ccccc1N=C(c1ccccc1)C1C(=O)c2ccccc2C1=O,73 µM,71.6 µM,> 100 µM,32.6 µM,36.5 µM,> 100 µM,19.3 µM,96.6 µM,11.3 µM,21.7 µM,24.6 µM,9.49 µM,13.8 µM,20.8 µM,1.48 µM,18 µM
O=C1NC(=O)/C(=C/c2ccc3nccc(-c4ccncc4)c3c2)S1,> 5.08 µM,2.73 µM,2.23 µM,> 6.77 µM,2.13 µM,5.93 µM,> 10 µM,5.22 µM,0.292 µM,0.247 µM,0.261 µM,0.325 µM,0.356 µM,0.429 µM,0.164 µM,0.528 µM
O=C(COc1ccc(Cl)cc1Cl)NNc1ccc([N+](=O)[O-])cc1,> 100 µM,> 100 µM,43.6 µM,> 100 µM,40.1 µM,95.6 µM,> 100 µM,> 100 µM,> 100 µM,> 100 µM,20.1 µM,> 100 µM,19.7 µM,25 µM,> 100 µM,99.6 µM
O=[N+]([O-])c1ccc(NC(c2ccccc2)c2ccc3cccnc3c2O)cc1 (stereo not drawn),> 100 µM,–,> 100 µM,1.47 µM,> 100 µM,> 100 µM,> 100 µM,6.67 µM,0.326 µM,0.293 µM,0.418 µM,0.334 µM,0.314 µM,0.551 µM,0.335 µM,0.548 µM
COC1C[C@H](O[C@@H]2C[C@H](O[C@@H]3C[C@H](O[C@@H]4C(=O)c5c(cc6cc(O[C@H]7C[C@@H](O[C@H]8C[C@@H](O)[C@H](O)C(C)O8)[C@H](O)C(C)O7)c(C)c(O)c6c5O)C[C@H]4C(OC)C(=O)[C@@H](O)[C@@H](C)O)OC(C)[C@H]3O)OC(C)[C@@H]2O)OC(C)[C@@H]1O (stereo partly drawn),> 32.5 µM,0.168 µM,29.6 µM,> 32.5 µM,> 32.5 µM,> 32.5 µM,> 32.5 µM,0.262 µM,2.19 µM,0.0545 µM,0.0631 µM,0.362 µM,0.104 µM,0.101 µM,0.0493 µM,0.0825 µM
CCCCCCCN(CCCCCCC)C(=N)c1ccc(OC)c2ccccc12,–,–,2.81 µM,–,2.72 µM,2.93 µM,–,–,–,–,1.39 µM,–,1.24 µM,1.38 µM,–,–
CN(N=O)N1C(=O)SCC(c2ccccc2)(c2ccccc2)C1=O,> 100 µM,> 100 µM,> 100 µM,> 100 µM,> 100 µM,> 100 µM,62.2 µM,> 100 µM,–,–,–,–,–,–,–,–
c1ccc2cc(Cn3c(-c4cccc5ccccc45)[n+](Cc4ccc5ccccc5c4)c4c5ccccc5c5ccccc5c43)ccc2c1,1.88 µM,–,1.42 µM,0.585 µM,1.05 µM,1.62 µM,1.2 µM,–,0.398 µM,–,0.165 µM,0.142 µM,0.203 µM,0.318 µM,0.244 µM,–
CN1CCN(CCCn2c3c(sc4ncccc43)c(=O)n3nnc(-c4ccccc4)c23)CC1,4.3 µM,2.75 µM,3.3 µM,3.47 µM,3.36 µM,5.82 µM,3.16 µM,10.5 µM,1.87 µM,1.39 µM,1.86 µM,1.48 µM,1.73 µM,2.48 µM,1.72 µM,5.81 µM

SMILES,TGI [1],TGI [2],TGI [3],TGI [4],TGI [5],TGI [6],TGI [7],TGI [8],GI50 [1],GI50 [2],GI50 [3],GI50 [4],GI50 [5],GI50 [6],GI50 [7],GI50 [8]
C=C1[C@H](O)C[C@@H](C(C)C(O)CC=C(C)C)[C@@H](O)[C@@H]2C(C)=CC[C@@H]12 (stereo partly drawn),> 100 µM,> 100 µM,> 100 µM,> 100 µM,> 100 µM,> 100 µM,> 100 µM,> 100 µM,> 100 µM,> 100 µM,> 100 µM,> 100 µM,> 100 µM,> 100 µM,> 100 µM,> 100 µM
O=C(Nc1cccc(Cl)c1)Nc1cc(C(F)(F)F)ccc1Cl,11.5 µM,6.96 µM,8.56 µM,31.3 µM,–,19.6 µM,18.1 µM,5.84 µM,2.66 µM,2.75 µM,3.32 µM,3.02 µM,–,3.81 µM,3.13 µM,2.66 µM
Cc1cccc(Nc2ncc(-c3ccccc3)o2)c1,> 25 µM,> 25 µM,> 25 µM,> 25 µM,> 25 µM,> 25 µM,> 25 µM,> 25 µM,> 25 µM,> 25 µM,> 25 µM,> 25 µM,> 25 µM,> 25 µM,12.9 µM,> 25 µM
C#Cc1cccc(NC(=O)C2CCCCN2C(=O)CCl)c1 (stereo not drawn),23.4 µM,18.6 µM,35.8 µM,51.7 µM,> 82.5 µM,> 82.5 µM,> 82.5 µM,> 82.5 µM,9.61 µM,7.6 µM,15.1 µM,16.8 µM,> 82.5 µM,> 82.5 µM,15.8 µM,26.2 µM
CNC(=O)c1cc(Oc2ccc(NC(=O)Nc3ccc(Cl)c(C(F)(F)F)c3)cc2)ccn1,> 10 µM and 12.3 µM and 9.84 µM,> 10 µM and 3.3 µM and 4.31 µM,> 10 µM and 5.82 µM and 5.94 µM,3.8 µM and 14.1 µM,> 10 µM and 5.33 µM and 4.56 µM,> 10 µM and 17.7 µM and 11.8 µM,9.82 µM and 7.38 µM and 10 µM,6.41 µM and 5.16 µM and 6.15 µM,2.76 µM and 3.18 µM and 2.65 µM,2.52 µM and 1.5 µM and 1.67 µM,2.84 µM and 2.05 µM and 2.14 µM,0.703 µM and 1.53 µM,2.34 µM and 1.83 µM and 1.69 µM,4.75 µM and 4.38 µM and 3.47 µM,2.62 µM and 2.41 µM and 2.82 µM,2.14 µM and 1.99 µM and 2.2 µM
c1ccc2c(c1)CCCc1nnc3nc4ccccc4n3c1-2,> 100 µM,10.9 µM,24.1 µM,78.2 µM,> 100 µM,> 100 µM,> 100 µM,> 100 µM,3.27 µM,2.61 µM,3.29 µM,2.49 µM,9.01 µM,7.5 µM,4.1 µM,5.27 µM
COc1cc(-c2cc(-c3ccc(Nc4nc(Nc5ccc(Cl)cc5)nc(Nc5ccc(Cl)cc5)n4)cc3)no2)cc(OC)c1OC,> 100 µM,> 100 µM,> 100 µM,55.5 µM,> 100 µM,> 100 µM,69.7 µM,> 100 µM,18.9 µM,11.4 µM,11.4 µM,2.32 µM,35.1 µM,26.8 µM,3 µM,23.5 µM
[N-]=[N+]=NCCCn1c2c(c3ccccc3c1=O)C(=O)c1cc3c(cc1-2)OCO3,> 100 µM,> 100 µM,> 100 µM,> 100 µM,> 100 µM,–,> 100 µM,> 100 µM,> 100 µM,44.9 µM,28.7 µM,43.6 µM,44.1 µM,–,0.817 µM,> 100 µM
C=C1CC2(CC(c3ccccc3C)OC(c3ccccc3C)C2)OC1=O (stereo not drawn),3.86 µM,3.05 µM,25.9 µM,11.6 µM,29.4 µM,30.8 µM,3.87 µM,3.66 µM,–,–,–,–,–,–,–,–
COc1cc2cc(C(=O)Nc3ccccc3)c(N)nc2cc1OC,> 100 µM,> 100 µM,> 100 µM,> 100 µM,> 100 µM,> 100 µM,> 100 µM,> 100 µM,31.3 µM,42.3 µM,43.1 µM,43.6 µM,46.7 µM,> 100 µM,48.8 µM,39.4 µM
C/C=C1/CN2CCC34c5ccccc5N5C(=O)C(C6CC78c9ccccc9N9C(=O)C=CC(C%10CC7N6C/C%10=C/C)C98)=CC(C1CC23)C54 (stereo not drawn),14.6 µM and 10.3 µM,26 µM,12.1 µM and 17.3 µM,1.36 µM and 10.2 µM,19.6 µM and 32.7 µM,15.2 µM and 30 µM,8.15 µM and 12 µM,12.2 µM and 9.24 µM,2.83 µM,–,4.66 µM,2.7 µM,15.9 µM,14.8 µM,2.9 µM,2.93 µM
Cn1cc(-c2[nH]c3cc(NC(=O)[C@H](N)C4CCCCC4)cc4c3c2C=NNC4=O)cn1,> 72 µM,3.52 µM and 1.66 µM,12.9 µM and > 10 µM,0.775 µM and > 4.21 µM,–,19.7 µM and > 10 µM,15.8 µM and > 10 µM,18.8 µM and > 10 µM,12 µM and 5.1 µM,0.305 µM and 0.268 µM,0.418 µM and 0.415 µM,0.292 µM and 0.296 µM,0.273 µM and 0.318 µM,0.65 µM and 0.47 µM,0.211 µM and 0.209 µM,4.16 µM and > 6.97 µM
Nc1nc(N)c2c(n1)NC(c1ccc(Cl)cc1)C1CCc3ccccc3C1=N2 (stereo not drawn),18.5 µM,16.2 µM,16.3 µM,–,14.7 µM,30.4 µM,10.4 µM,19.6 µM,4.16 µM,3.53 µM,3.81 µM,–,3.37 µM,16.8 µM,2.41 µM,7.07 µM
COc1cc(OC)c(OC)cc1/C=C/c1ccc2ccccc2n1,> 10 µM,> 10 µM,> 10 µM,> 10 µM,> 10 µM,–,> 10 µM,> 10 µM,–,–,–,–,–,–,–,–
Oc1ccc(Cl)cc1N=Nc1c(O)ccc2ccccc12,> 100 µM,> 100 µM,> 100 µM,> 100 µM,> 100 µM,> 100 µM,–,> 100 µM,–,–,–,–,–,–,–,–
O=C(Nc1c(Cl)cccc1Cl)Oc1cccc2cccnc12,> 100 µM,–,–,20.6 µM,69 µM,> 100 µM,> 100 µM,9.72 µM,0.992 µM,–,–,3.75 µM,6.68 µM,5.74 µM,2.99 µM,2.74 µM
O=C(O)[C@@H](Cc1ccccc1)NS(=O)(=O)c1ccc(-c2ccccc2)cc1,> 100 µM,> 100 µM,> 100 µM,–,> 100 µM,> 100 µM,> 100 µM,> 100 µM,> 100 µM,> 100 µM,> 100 µM,–,> 100 µM,> 100 µM,> 100 µM,> 100 µM
